Data from patent US6914045B2, “Glycopeptide antibiotics” (Wyeth Holdings Corporation, priority 2001, dated 2005).
≈ marks a conversion by molar mass, not a printed value.

Key:
Test in all cases: in vitro antibacterial evaluation, MIC by broth dilution
Assay type in all cases: cell-based
Staphylococcus sp. = conditions: broth dilution, 18 hours at 35° C.; for MIC Staphylococcus aureus (ATCC 29213): strain ATCC 29213; for MIC Staphylococcus aureus (GC 1131): strain GC 1131; for MIC Staphylococcus aureus (GC 3051): strain GC 3051; for MIC Staphylococcus aureus (GC 3053): strain GC 3053; for MIC Staphylococcus aureus (GC 4541): strain GC 4541; for MIC Staphylococcus aureus (GC 4542): strain GC 4542; for MIC Staphylococcus aureus-SMITH (GC 4543): strain GC 4543; for MIC Staphylococcus aureus (GC 4544): strain GC 4544; for MIC Staphylococcus aureus (GC 4545): strain GC 4545; for MIC Staphylococcus haemolyticus (GC 4546): strain GC 4546; for MIC Coagulase Negative Staphylococcus (GC 4547): strain GC 4547; for MIC Coagulase Negative Staphylococcus (GC 4548): strain GC 4548; for MIC Coagulase Negative Staphylococcus (GC 4549): strain GC 4549; for MIC Coagulase Negative Staphylococcus (GC 4551): strain GC 4551
How it was run: (§1)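 Test organisms, which included recent clinical isolates resistant to methicillin, penicillin and/or vancomycin, were inoculated at 5×10^5 CFU/mL into Muller-Hinton II […] containing antibiotic at 64-0.06 μg/mL. Minimum inhibitory concentrations were then read as the lowest level inhibiting growth.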

Streptococcus sp. = conditions: broth dilution, 18 hours at 35° C.
How it was run: as §1

Enterococcus sp. = conditions: broth dilution, 18 hours at 35° C.
How it was run: as §1

Escherichia coli = conditions: 18 hours at 35° C.
How it was run: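 MIC is the lowest antibiotic concentration (tested 64-0.06 μg/mL) preventing growth of a 5×10^5 CFU/mL inoculum. Determined by broth dilution in Mueller-Hinton II medium following NCCLS standard M7-A2.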

CC(c1ccccc1)C1NC(=O)CNC(=O)C(CO)NC(=O)C(C(O)C2CNC(=N)N2C2OC(CO)C(O)C(O)C2O)NC(=O)C(C(O)C2CNC(=N)N2)NC(=O)C(Cc2ccc3oc(SCC(=O)c4ccccc4)nc3c2)NC1=O (stereo not drawn) [Example 48]
MIC Staphylococcus aureus (ATCC 29213) (Staphylococcus sp.): 32 µg/mL (≈ 27.9 µM)
MIC Staphylococcus aureus (GC 1131) (Staphylococcus sp.): 16 µg/mL (≈ 14 µM)
MIC Staphylococcus aureus (GC 3051) (Staphylococcus sp.): 16 µg/mL (≈ 14 µM)
MIC Staphylococcus aureus (GC 3053) (Staphylococcus sp.): 16 µg/mL (≈ 14 µM)
MIC Staphylococcus aureus (GC 4541) (Staphylococcus sp.): 16 µg/mL (≈ 14 µM)
MIC Staphylococcus aureus (GC 4542) (Staphylococcus sp.): 16 µg/mL (≈ 14 µM)
MIC Staphylococcus aureus-SMITH (GC 4543) (Staphylococcus sp.): 16 µg/mL (≈ 14 µM)
MIC Staphylococcus aureus (GC 4544) (Staphylococcus sp.): 16 µg/mL (≈ 14 µM)
MIC Staphylococcus aureus (GC 4545) (Staphylococcus sp.): 16 µg/mL (≈ 14 µM)
MIC Staphylococcus haemolyticus (GC 4546) (Staphylococcus sp.): 8 µg/mL (≈ 6.98 µM)
MIC Coagulase Negative Staphylococcus (GC 4547) (Staphylococcus sp.): 4 µg/mL (≈ 3.49 µM)
MIC Coagulase Negative Staphylococcus (GC 4548) (Staphylococcus sp.): 8 µg/mL (≈ 6.98 µM)
MIC Coagulase Negative Staphylococcus (GC 4549) (Staphylococcus sp.): 4 µg/mL (≈ 3.49 µM)
MIC Coagulase Negative Staphylococcus (GC 4551) (Staphylococcus sp.): 16 µg/mL (≈ 14 µM)
MIC Streptococcus pneumoniae (ATCC 6301) (Streptococcus sp.; strain ATCC 6301): 16 µg/mL (≈ 14 µM)
MIC Streptococcus pneumoniae (GC 1894) (Streptococcus sp.; strain GC 1894): 8 µg/mL (≈ 6.98 µM)
MIC Streptococcus pyogenes (GC 4563) (Streptococcus sp.; strain GC 4563): 8 µg/mL (≈ 6.98 µM)
MIC Streptococcus agalactiae (GC 4564) (Streptococcus sp.; strain GC 4564): 16 µg/mL (≈ 14 µM)
MIC Streptococcus pneumoniae (GC 4565) (Streptococcus sp.; strain GC 4565): 32 µg/mL (≈ 27.9 µM)
MIC Enterococcus faecalis (ATCC 29212) (Enterococcus sp.; strain ATCC 29212): 64 µg/mL (≈ 55.8 µM)
MIC Enterococcus faecalis (GC 2242) (Enterococcus sp.; strain GC 2242): 64 µg/mL (≈ 55.8 µM)
MIC Enterococcus faecium (GC 2243) (Enterococcus sp.; strain GC 2243): 16 µg/mL (≈ 14 µM)
MIC Enterococcus faecalis (GC 2691) (Enterococcus sp.; strain GC 2691): 64 µg/mL (≈ 55.8 µM)
MIC Enterococcus faecalis (GC 3059) (Enterococcus sp.; strain GC 3059): 64 µg/mL (≈ 55.8 µM)
MIC Enterococcus faecalis (GC 4552) (Enterococcus sp.; strain GC 4552): 64 µg/mL (≈ 55.8 µM)
MIC Enterococcus faecalis (GC 4553) (Enterococcus sp.; strain GC 4553): 16 µg/mL (≈ 14 µM)
MIC Enterococcus faecalis (GC 4554) (Enterococcus sp.; strain GC 4554): 64 µg/mL (≈ 55.8 µM)
MIC Enterococcus faecium (GC 4556) (Enterococcus sp.; strain GC 4556): 64 µg/mL (≈ 55.8 µM)
MIC Enterococcus faecium (GC 4557) (Enterococcus sp.; strain GC 4557): 4 µg/mL (≈ 3.49 µM)
MIC Enterococcus avium (GC 4558) (Enterococcus sp.; strain GC 4558): 8 µg/mL (≈ 6.98 µM)
MIC Enterococcus faecalis (GC 6189) (Enterococcus sp.; strain GC 6189): 64 µg/mL (≈ 55.8 µM)
MIC Escherichia coli (ATCC 25922) (Escherichia coli; strain ATCC 25922, broth dilution): 32 µg/mL (≈ 27.9 µM)
MIC Escherichia coli (GC 4559) (Escherichia coli; strain GC 4559, broth dilution): 32 µg/mL (≈ 27.9 µM)
MIC Escherichia coli (GC 4560) (Escherichia coli; strain GC 4560, broth dilution): 4 µg/mL (≈ 3.49 µM)

CC(C)=CCCC(C)=CCCC(C)=CCOc1cccc(C2OCC3OC(OC4C(CO)OC(Oc5ccc(CC6NC(=O)C(C(C)c7ccccc7)NC(=O)CNC(=O)C(CO)NC(=O)C(C(O)C7CNC(=N)N7C7OC(CO)C(O)C(O)C7O)NC(=O)C(C(O)C7CNC(=N)N7)NC6=O)cc5)C(O)C4O)C(O)C(O)C3O2)c1 (stereo not drawn) [Example 185]
MIC Staphylococcus aureus (GC 1131) (Staphylococcus sp.; inoculum 5×10^5 CFU/mL): >64 µg/mL
MIC Staphylococcus aureus (ATCC 29213) (Staphylococcus sp.): >64 µg/mL
MIC Staphylococcus aureus (GC 1131) (Staphylococcus sp.): >64 µg/mL
MIC Staphylococcus aureus (GC 3051) (Staphylococcus sp.): >64 µg/mL
MIC Staphylococcus aureus (GC 3053) (Staphylococcus sp.): >64 µg/mL
MIC Staphylococcus aureus (GC 4541) (Staphylococcus sp.): >64 µg/mL
MIC Staphylococcus aureus (GC 4542) (Staphylococcus sp.): >64 µg/mL
MIC Staphylococcus aureus-SMITH (GC 4543) (Staphylococcus sp.): >64 µg/mL
MIC Staphylococcus aureus (GC 4544) (Staphylococcus sp.): >64 µg/mL
MIC Staphylococcus aureus (GC 4545) (Staphylococcus sp.): >64 µg/mL
MIC Staphylococcus haemolyticus (GC 4546) (Staphylococcus sp.): >64 µg/mL
MIC Coagulase Negative Staphylococcus (GC 4547) (Staphylococcus sp.): >64 µg/mL
MIC Coagulase Negative Staphylococcus (GC 4548) (Staphylococcus sp.): >64 µg/mL
MIC Coagulase Negative Staphylococcus (GC 4549) (Staphylococcus sp.): >64 µg/mL
MIC Coagulase Negative Staphylococcus (GC 4551) (Staphylococcus sp.): >64 µg/mL
MIC Coagulase Negative Staphylococcus (GC 6257) (Staphylococcus sp.; strain GC 6257): >64 µg/mL
MIC Streptococcus agalactiae (GC 4564) (Streptococcus sp.): 1 µg/mL (≈ 0.624 µM)
MIC Streptococcus pneumoniae (ATCC 6301) (Streptococcus sp.): 0.12 µg/mL (≈ 0.0748 µM)
MIC Streptococcus pneumoniae (GC 1894) (Streptococcus sp.): <0.06 µg/mL
MIC Streptococcus pneumoniae (GC 4565) (Streptococcus sp.): <0.06 µg/mL
MIC Streptococcus pyogenes (GC 4563) (Streptococcus sp.): 16 µg/mL (≈ 9.98 µM)
MIC Streptococcus pneumoniae (ATCC 6301) (Streptococcus sp.; inoculum 5×10^5 CFU/mL, strain ATCC 6301): 0.12 µg/mL (≈ 0.0748 µM)
MIC Streptococcus pneumoniae (GC 1894) (Streptococcus sp.; inoculum 5×10^5 CFU/mL, strain GC 1894): <0.06 µg/mL
MIC Streptococcus pyogenes (GC 4563) (Streptococcus sp.; inoculum 5×10^5 CFU/mL, strain GC 4563): 16 µg/mL (≈ 9.98 µM)
MIC Streptococcus agalactiae (GC 4564) (Streptococcus sp.; inoculum 5×10^5 CFU/mL, strain GC 4564): 1 µg/mL (≈ 0.624 µM)
MIC Streptococcus pneumoniae (GC 4565) (Streptococcus sp.; inoculum 5×10^5 CFU/mL, strain GC 4565): <0.06 µg/mL
MIC Enterococcus avium (GC 4558) (Enterococcus sp.): 64 µg/mL (≈ 39.9 µM)
MIC Enterococcus faecalis (ATCC 29212) (Enterococcus sp.): >64 µg/mL
MIC Enterococcus faecalis (GC 2242) (Enterococcus sp.): >64 µg/mL
MIC Enterococcus faecalis (GC 2691) (Enterococcus sp.): >64 µg/mL
MIC Enterococcus faecalis (GC 3059) (Enterococcus sp.): >64 µg/mL
MIC Enterococcus faecalis (GC 4552) (Enterococcus sp.): >64 µg/mL
MIC Enterococcus faecalis (GC 4553) (Enterococcus sp.): 32 µg/mL (≈ 20 µM)
MIC Enterococcus faecalis (GC 4554) (Enterococcus sp.): >64 µg/mL
MIC Enterococcus faecalis (GC 6189) (Enterococcus sp.): >64 µg/mL
MIC Enterococcus faecium (GC 2243) (Enterococcus sp.): 32 µg/mL (≈ 20 µM)
MIC Enterococcus faecium (GC 4556) (Enterococcus sp.): >64 µg/mL
MIC Enterococcus faecium (GC 4557) (Enterococcus sp.): >64 µg/mL
MIC Enterococcus faecalis (ATCC 29212) (Enterococcus sp.; inoculum 5×10^5 CFU/mL, strain ATCC 29212): >64 µg/mL
MIC Enterococcus faecalis (GC 2242) (Enterococcus sp.; inoculum 5×10^5 CFU/mL, strain GC 2242): >64 µg/mL
MIC Enterococcus faecium (GC 2243) (Enterococcus sp.; inoculum 5×10^5 CFU/mL, strain GC 2243): 32 µg/mL (≈ 20 µM)
MIC Enterococcus faecalis (GC 2691) (Enterococcus sp.; inoculum 5×10^5 CFU/mL, strain GC 2691): >64 µg/mL
MIC Enterococcus faecalis (GC 3059) (Enterococcus sp.; inoculum 5×10^5 CFU/mL, strain GC 3059): >64 µg/mL
MIC Enterococcus faecalis (GC 4552) (Enterococcus sp.; inoculum 5×10^5 CFU/mL, strain GC 4552): >64 µg/mL
MIC Enterococcus faecalis (GC 4553) (Enterococcus sp.; inoculum 5×10^5 CFU/mL, strain GC 4553): 32 µg/mL (≈ 20 µM)
MIC Enterococcus faecalis (GC 4554) (Enterococcus sp.; inoculum 5×10^5 CFU/mL, strain GC 4554): >64 µg/mL
MIC Enterococcus faecium (GC 4556) (Enterococcus sp.; inoculum 5×10^5 CFU/mL, strain GC 4556): >64 µg/mL
MIC Enterococcus faecium (GC 4557) (Enterococcus sp.; inoculum 5×10^5 CFU/mL, strain GC 4557): >64 µg/mL
MIC Enterococcus avium (GC 4558) (Enterococcus sp.; inoculum 5×10^5 CFU/mL, strain GC 4558): 64 µg/mL (≈ 39.9 µM)
MIC Enterococcus faecalis (GC 6189) (Enterococcus sp.; inoculum 5×10^5 CFU/mL, strain GC 6189): >64 µg/mL
MIC Escherichia coli (ATCC 25922) (Escherichia coli): >64 µg/mL
MIC Escherichia coli (GC 4559) (Escherichia coli): >64 µg/mL
MIC Escherichia coli (GC 4560) (Escherichia coli): >64 µg/mL
